Experiments:
Type in all cases: cell-based, human
HCT-116 cells [1] = experiment: Cell cycle assay (PI flow cytometry), HCT-116; conditions: 30 µg/mL, 48 h, mean of n = 2 (Figure 1E); untreated control 47.37 ± 1.68%
Protocol: Cell proliferation depends on orderly progression through the phases of the cell cycle (G1−S−G2−M). Cytotoxic agents can impair the integrity of DNA, leading to checkpoint arrest at G1/S or G2/M, which subsequently blocks proliferation. To evaluate the impact of compound 3d on cell cycle distribution, colon carcinoma cells were treated with 30 µg/mL of 3d for 48 h, followed by DNA content analysis using flow cytometry. […] In contrast, in HCT-116 cells, 3d caused an accumulation in the G1 phase, reaching 60.17 ± 1.44% versus 47.37 ± 1.68% in untreated cells (Figure 1E). […]
(§1) medium served used as negative and positive controls, respectively. Percentages of viable cells […]
(§2) wells (final concentration of 100 μg/mL), compared to the negative control, and expressed as mean value (%) ± SD from two replicates. Graphing dose-response curves representing the compound […]
(§3) (HUVECs) at final concentration of 100 μg/mL . HUVECs were grown in Dulbecco’s Modified Eagle’s Medium supplemented with 10% FBS, 2 mM glutamine (Sigma Aldrich), 100 units/mL penicillin and […] streptomycin (Life Technologies; Paisley, UK).
(§4) S3.2.5. Cell cycle assay.
(§5) HCT-116 and LoVo cultures upon treatment with compound 3d. HCT-116 and LoVo carcinoma […]
(§6) μg/mL for 48 h. […] Then, cells […]
(§7) of stained cancerous cells were determined. […]
carcinoma cells treated with compound 3d was assessed using the TMRE Mitochondrial Membrane

HCT-116 cells [2] = experiment: Annexin V-FITC/PI apoptosis assay, HCT-116; conditions: 30 µg/mL, 48 h
Protocol: Translocation of phosphatidylserine (PS) residues on the cell surface is an early apoptosis indicator, detectable through flow cytometric analysis and using double staining with propidium iodide (PI) dye and fluorescein isothiocyanate (FITC)-conjugated Annexin V (Annexin V-FITC). […]
μg/mL for 48 h. […]
S3.2.6. Annexin-V-FITC assay. […]
treatment with compound 3d. HCT-116 and LoVo cells were treated with vehicle (DMSO) and 3d […]
in Annexin-V binding buffer (BioVision Research Products, USA). The cells were then stained with Annexin V-FITC and propidium iodide (PI). Using the FITC signal detector (usually FL1) for […]
as §7

HCT-116 cells [3] = experiment: Mitochondrial membrane potential (TMRE staining), HCT-116; conditions: 30 µg/mL, 48 h
Protocol: To assess mitochondrial integrity, TMRE staining was used to measure ΔΨm.
The mitochondrial transmembrane potential was measured using a tetramethylrhodamine, ethyl ester (TMRE) mitochondrial membrane potential assay kit. […]
as §1, §2, §3, §4, §5, §6
were fixed by mixing […] of 90% cold ethanol and stained with propidium iodide (PI) for 1 h at 37 °C. […]
as §7
carcinoma cells treated with compound 3d was assessed using the TMRE Mitochondrial Membrane […]
for TMRE staining. TMRE was excited using a 488 nm laser and detected in the FL2 channel at 575 […]
S3.2.9. Quantification of the Expression Levels of Bax, Bcl-2 and Caspase-3 Genes […]

COc1cc(/C=N/c2ncnc3sc4c(c23)CCCC4)cc(OC)c1OC [Compound 3d, (E)-N-(5,6,7,8-Tetrahydrobenzo[4,5]thieno[2,3-d]pyrimidin-4-yl)-1-(3,4,5-trimethoxyphenyl)methanimine]
% of Cell population, HCT-116: %G1 (HCT-116 cells [1]): 60.17 ± 1.44% | Necrotic population (Annexin-V−/PI+), HCT-116 (HCT-116 cells [2]; Figure 3D plot): 1.53% | Late apoptotic cells (both Annexin-V and PI positive), HCT-116 (HCT-116 cells [2]; Figure 3D plot, control 0.15%): 3.63% | Early apoptotic cells (Annexin V-FITC positive and PI negative), HCT-116 (HCT-116 cells [2]; Figure 3D plot, control 0.46%): 19.02% | % of cell population, Mean necrosis (HCT-116) (HCT-116 cells [2]; mean of two independent experiments (Figure 3E)): 1.63% | % of cell population, Mean total death (HCT-116) (HCT-116 cells [2]; mean of two independent experiments (Figure 3E), text calls it total apoptosis): 25.11% | Reduction of mitochondrial membrane potential (ΔΨm), HCT-116 cells (HCT-116 cells [3]): 43.47 ± 0.81%
